Results on 6 molecules are retold here after publication PMC11489133, “Obicetrapib exhibits favorable physiochemical and pharmacokinetic properties compared to previous cholesteryl ester transfer protein inhibitors: An integrated summary of results from non‐human primate studies and clinical trials” (Pharmacology Research & Perspectives, 2024).

Like-named read-outs stand apart in the source and are kept apart here.

A short description of data set [1]: absorption, metabolism and excretion study of a single 10 mg dose of 14C-obicetrapib (NCT02408055, TA‐8995‐07). Format: in vivo, humans. The following applies: male, human, in vivo. How it is done:
Figure 2 illustrates the obicetrapib (TA‐8995) M1 detected above the LLOQ (>1% radioactivity) in human plasma expressed as the percent radioactivity profiled. A study (NCT02408055) was conducted in healthy male participants (n = 6) to assess the absorption, metabolism, and excretion of a single dose of 10 mg of ^14C‐obicetrapib (TA‐8995‐07 CSR, NewAmsterdam Pharma). One of the objectives of the study was to determine the chemical structure of ^14C‐obicetrapib M1 that represent ≥10% of total radioactivity in plasma. The participants received 10 mL ^14C‐obicetrapib oral suspension, containing 10 mg and 100 μCi of ^14C‐obicetrapib in the fasted state. Clinical samples for analysis were selected based upon the levels of radioactivity present as determined by liquid scintillation counting and were stored at below −50°C (nominally −80°C) when not in use. Plasma samples from the participants were sequentially extracted with acetonitrile at five time points. The resulting extracts were concentrated by evaporation and reconstituted in mobile phase HPLC prior to analysis by radio‐HPLC. All samples were analyzed by liquid scintillation counting to evaluate the recovery of radioactivity. The profiles of the radiolabeled components in each sample of plasma were determined by HPLC analysis with off‐line radio‐detection. Selected samples from each matrix were then further analyzed by high‐resolution mass spectrometry to investigate the identity of M1. In plasma, the predominant metabolite component was unchanged obicetrapib (~79% of total drug‐related exposure), and the most abundant plasma M1 were M1 and P9 of which each accounted for ~4% of total exposure (Figure 2). No significant differences in the metabolite profiles were observed across the samples obtained from the six participants (TA‐8995‐07 CSR, NewAmsterdam Pharma).

On the set-up of data set [2]: method as in PMID 28847206. The settings on record: added to high‐intensity statin therapy, compared to placebo; cited from earlier work.
The conditions of data set [3]: cited from earlier work.
For data set [4] the following is noted: cited from earlier work. The source holds these as a separate data set.
The conditions of data set [5]: cited from earlier work. This is another data set of the same source.
For data set [6] the following is noted: pH 7.4; cited from earlier work.

With `CCC1CC(N(Cc2cc(C(F)(F)F)cc(C(F)(F)F)c2)c2ncc(OCCCC(=O)O)cn2)c2cc(C(F)(F)F)ccc2N1` (stereo not drawn) [M1], the “percent radioactivity profiled in human plasma” value in data set [1] was “approx. 4%”.
For the molecule `O=C(O)COc1cnc(NCc2cc(C(F)(F)F)cc(C(F)(F)F)c2)nc1` [P9], the “percent radioactivity profiled in human plasma” value in data set [1] was “approx. 4%”.
`COc1cc(F)c(C(C)C)cc1-c1ccc(C(F)(F)F)cc1CN1C(=O)O[C@H](c2cc(C(F)(F)F)cc(C(F)(F)F)c2)[C@@H]1C` [anacetrapib, Anacetrapib]: the “reduced risk of major adverse coronary events” value in data set [2] is 9%. The PSA in data set [3] is 39 Å^2. In data set [4] (76‐week DEFINE trial), the “time detected in plasma after the last treatment dose” value is “up to 4 years”. Besides, the “half‐life” value in data set [4] (human, in vivo) is on record as “up to 80 h”. For the same molecule, the “accumulation in adipose tissue” value in data set [4] (subcutaneous adipose biopsy measurements, compared to plasma levels) was “accumulated in adipose tissue at much higher concentrations and for a prolonged period”. Also, in data set [5] (in vivo), the “increase in plasma levels, fed versus fasted state” value is recorded as 2-8 fold; the “increase of AUC (0‐∞) by a high‐fat meal compared to a fasting state” value is recorded as 6 fold; the “increase of C max by a high‐fat meal compared to a fasting state” value is on record as 8 fold. In addition, the cLogDpH7.4 in data set [6] is on record as 9.2.
In the case of `CCC(CC)CC1(C(=O)Nc2ccccc2SC(=O)C(C)C)CCCCC1` [dalcetrapib, Dalcetrapib], the PSA in data set [3] is on record as 46 Å^2. Moreover, the “t 1/2” value in data set [4] (once daily doses between 300 and 1200 mg, short‐term investigations) is recorded as 30 h. Also, in data set [4] (other CETP inhibitors), the “accumulation in adipose tissue” value is recorded as “no accumulation in adipose tissue”. Moreover, in data set [5], the “increase of AUC(0–36) by a high‐fat meal compared to fasting conditions” value is 1.6 fold and the “increase of C max by a high‐fat meal compared to fasting conditions” value is listed as 2.3 fold. For the same molecule, the cLogDpH7.4 in data set [6] is given as 7.2.
With `Cc1cc(C)c2c(c1)[C@@H](N(Cc1cc(C(F)(F)F)cc(C(F)(F)F)c1)c1nnn(C)n1)CCCN2C[C@H]1CC[C@H](C(=O)O)CC1` [evacetrapib, Evacetrapib], the PSA in data set [3] is 87 Å^2. For the same molecule, the “accumulation in adipose tissue” value in data set [4] (human, in vivo) is reported as “no accumulation in adipose tissue”. Also, the “t 1/2” value in data set [4] (once daily doses between 10 and 600 mg for up to 15 days) was 40 h. In data set [5], the “increase of AUC(τ) by a high‐fat meal compared to fasting conditions” value is recorded as 1.4 fold and the “increase of C max by a high‐fat meal compared to fasting conditions” value was 1.5 fold. Besides, the cLogDpH7.4 in data set [6] was 7.9.
As for `CCOC(=O)N1c2ccc(C(F)(F)F)cc2[C@@H](N(Cc2cc(C(F)(F)F)cc(C(F)(F)F)c2)C(=O)OC)C[C@H]1CC` [torcetrapib, Torcetrapib], in data set [3], the PSA was 59 Å^2. Besides, the “accumulation in adipose tissue” value in data set [4] (human, in vivo) is given as “no accumulation in adipose tissue”. For the same molecule, the “t 1/2” value in data set [4] (single ascending dose study) is 211 h. Further, the cLogDpH7.4 in data set [6] was 7.6.
